Columns and labels:
Type in all cases: in vivo
[1] = test system: green peach aphid (Myzus persicae); experiment: Myzus persicae spray test (MYZUPE); conditions: 120 h; for mortality at 100 g/ha: after 5 days
Method in brief: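 Chinese cabbage leaf disks infested with all instars of Myzus persicae were sprayed with compound formulated in acetone/dimethylformamide and diluted in water with 1000 ppm alkylarylpolyglycol ether emulsifier. Percent mortality was scored after 5 days, 100% meaning all aphids killed.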

[2] = test system: adult brown dog ticks (Rhipicephalus sanguineus); experiment: Rhipicephalus sanguineus in-vitro contact test, adult brown dog ticks; conditions: 48 h, read-out: efficacy (ticks dead or moribund)
Experimental: Rhipicephalus sanguineus—In-Vitro Contact Tests with Adult Brown Dog Ticks
(§1) 9 mg compound is solved in 1 mL acetone and diluted with acetone to the desired concentration. 250 μL of the test solution is filled in 25 mL glass test tubes and homogeneously distributed on the inner walls by rotation and tilting on a shaking device (2 h at 30 rpm). With a compound concentration of 900 ppm, an inner surface of 44.7 cm^2 and a homogeneous distribution, a dose of 5 μg/cm^2 is achieved.
(§2) After the solvent has evaporated, each test tube is filled with 5-10 adult brown dog ticks (Rhipicephalus sanguineus), closed with a perforated lid and incubated in a lying position at room temperature and relative humidity. After 48 hours efficacy is determined. The ticks are patted on the ground of the tubes and are incubated on a heating plate at 45-50° C. for at most 5 minutes. Immotile or uncoordinated moving ticks, which are not able to escape the heat by climbing upwards, are marked as dead or moribund.
An efficacy of 100% means all ticks are dead or moribund; 0% means no ticks are dead or moribund.

[3] = test system: fall armyworm larvae (Spodoptera frugiperda); experiment: whole plant or invertebrate; conditions: 168 h
Method in brief: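 Maize leaf sections sprayed with compound in acetone/DMF with alkylarylpolyglycol ether emulsifier diluted in water, then infested with fall armyworm larvae once dry. Mortality (%) scored after 7 days; 100% = all caterpillars killed.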

[4] = test system: larvae of the southern green stink bug (Nezara viridula); experiment: whole plant or invertebrate; conditions: 96 h
Method in brief: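 Compound in acetone/DMF was diluted in water with 1000 ppm alkylarylpolyglycol ether emulsifier. Barley plants were sprayed with it, then infested with Nezara viridula larvae. Mortality % was scored after 4 days (100% = all killed).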

[5] = test system: larvae of the banded cucumber beetle (Diabrotica balteata); experiment: Diabrotica balteata spray test; conditions: 168 h, 100 g/ha (=32 μg/well), after 7 days, read-out: efficacy (seedling growth)
Method in brief: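 Germinated wheat seeds on agar (5 per well) were sprayed with compound formulated in acetone/DMF and diluted in water with 1000 ppm emulsifier. Each unit was then infested with 10–20 larvae. Efficacy % was scored after 7 days as seedling growth relative to an untreated, uninfested control (100% = normal growth).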

[6] = test system: cattle tick larvae (Rhipicephalus microplus), strain Parkhurst, resistant against synthetic pyrethroids; experiment: Rhipicephalus (Boophilus) microplus in-vitro contact test, larval cattle tick; conditions: 5 μg/cm^2 (=500 g/ha), after 48 hours
Experimental: Rhipicephalus (Boophilus) Microplus—In-Vitro Contact Tests Larval Cattle Tick (Strain Parkhurst, Resistant Against Synthetic Pyrethroids)
as §1
After the solvent has evaporated, each test tube is filled with 20-50 cattle tick larvae (Rhipicephalus microplus), closed with a perforated lid and incubated in a horizontal position at 85% relative humidity and 27° C. in an incubator. After 48 hours efficacy is determined. The larvae are patted on the ground of the tubes and negative geotactic behavior is recorded.
An efficacy of 100% means all larvae are dead or moribund; 0% means no larvae are dead or moribund.

[7] = test system: adult cat fleas (Ctenocephalides felis); experiment: Ctenocephalides felis in-vitro contact test, adult cat flea; conditions: 5 μg/cm^2 (=500 g/ha), after 48 hours
Experimental: Ctenocephalides felis—In-Vitro Contact Tests Adult Cat Flea
as §1
as §2, with “cat fleas (Ctenocephalides felis),” for “brown dog ticks (Rhipicephalus sanguineus),”, “fleas” for “ticks”, “fleas,” for “ticks,”
An efficacy of 100% means all fleas are dead or moribund; 0% means no fleas are dead or moribund.

[8] = test system: adult mosquitoes Aedes aegypti strain MONHEIM; experiment: Aedes aegypti test (AEDSAE surface treatment & contact assay); conditions: 24 hours after contact, read-out: efficacy (mortality); for mortality at 4 mg/m2: surface concentration 4 mg/m^2, 30 min exposure; for mortality at 20 mg/m2: surface concentration 20 mg/m^2, 30 min exposure
Experimental: Aedes aegypti Test (AEDSAE Surface Treatment & Contact Assay)
(§3) Solvent: Aceton+2000 ppm rapeseed oil methyl ester (RME)
(§4) This solution is pipetted onto a glazed tile and after evaporation of the acetone, adult mosquitoes of the species Aedes aegypti strain MONHEIM are placed onto the dried surface. The exposure time is 30 minutes. Mortality in percent (%) is determined 24 hours after contact of the insects to the treated surface. 100% mortality means that all tested insects are dead, whereas 0% means that no insect died.

[9] = test system: adult flies Musca domestica strain WHO-N; experiment: Musca domestica test (MUSCDO surface treatment & contact assay); conditions: 24 hours after contact, read-out: efficacy (mortality); for mortality at 4 mg/m2: surface concentration 4 mg/m^2, 30 min exposure; for mortality at 20 mg/m2: surface concentration 20 mg/m^2, 30 min exposure
Experimental: Musca domestica Test (MUSCDO Surface Treatment & Contact Assay)
as §3
as §4, with “flies” for “mosquitoes”, “Musca domestica” for “Aedes aegypti”, “WHO-N” for “MONHEIM”

[10] = test system: brown planthopper (Nilaparvata lugens); experiment: Nilaparvata lugens spray test; conditions: 96 h
Method in brief: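 Rice plants (Oryza sativa) sprayed with compound formulated in acetone/DMF with alkylarylpolyglycol ether emulsifier (1000 ppm in diluting water), then infested with planthoppers. Mortality (%) scored after 4 days; 100% = all insects killed, 0% = none killed.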

[11] = test system: adult animals Blattella germanica strain PAULINIA; experiment: Blattella germanica test (BLTTGE surface treatment & contact assay); conditions: surface concentration 20 mg/m^2, 30 min exposure, 24 hours after contact, read-out: efficacy (mortality)
Experimental: Blattella germanica Test (BLTTGE Surface Treatment & Contact Assay)
as §3
In order to produce a sufficient, active ingredient containing solution it is necessary to solve the test compound in the solvent-mix (acetone at 2 mg/ml/RME 2000 ppm). This solution is pipetted onto a glazed tile and after evaporation of the acetone, adult animals of the species Blattella germanica strain PAULINIA are placed onto the dried surface. The exposure time is 30 minutes.
Mortality in percent (%) is determined 24 hours after contact of the insects to the treated surface. 100% mortality means that all tested insects are dead, whereas 0% means that no insect died.

[12] = test system: adult mosquitoes Culex quinquefasciatus strain P00; experiment: Culex quinquefasciatus test (CULXFA surface treatment & contact assay); conditions: 24 hours after contact, read-out: efficacy (mortality)
Experimental: Culex quinquefasciatus Test (CULXFA Surface Treatment & Contact Assay)
as §3
as §4, with “Culex quinquefasciatus” for “Aedes aegypti”, “P00” for “MONHEIM”

SMILES	mortality at 100 g/ha [1]	pest or weed control at 5 µg/cm2, 500 g/ha [2]	mortality at 100 g/ha [3]	mortality at 500 g/ha [4]	pest or weed control at 32 µg/disc, 100 g/ha [5]	efficacy (larvae dead or moribund) [6]	efficacy (fleas dead or moribund) [7]	mortality at 4 mg/m2 [8]	mortality at 20 mg/m2 [8]	mortality at 4 mg/m2 [9]	mortality at 20 mg/m2 [9]	mortality at 500 g/ha [10]	other results
C[C@H](NC(=O)c1cc(Br)cc(Br)c1)c1ncnn1-c1cc(C(N)=O)ncn1 [I-34, 6-[5-[(1S)-1-[(3,5-dibromobenzoyl)amino]ethyl]-1,2,4-triazol-1-yl]pyrimidine-4-carboxamide]	90%	100%	100%	100%	100%	100%	100%	80 to 100%	80 to 100%	–	–	–	mortality at 100 g/ha [4]: 100%
C[C@H](NC(=O)c1cc(OC(F)(F)F)cc(OC(F)(F)F)c1)c1nc(C2CC2)nn1-c1cc(C(N)=O)ncn1 [I-36]	–	80%	100%	–	100%	100%	–	–	80 to 100%	80 to 100%	80 to 100%	–	–
C[C@H](NC(=O)c1cc(C#N)cc(OC(F)(F)F)c1)c1nc(C2CC2)nn1-c1cc(C(N)=O)ncn1 [I-39]	–	–	100%	–	100%	–	–	–	–	80 to 100%	80 to 100%	100%	–
CNC(=O)c1cc(-n2ncnc2[C@H](C)NC(=O)c2cc(Cl)cc(S(=O)(=O)C(F)(F)F)c2)ncn1 [I-86]	100%	–	100%	100%	100%	–	–	80 to 100%	80 to 100%	–	80 to 100%	–	Emax at 4 g/ha ([1]; MYZUPE, 4 g ai/ha, 5 dat (Table 4), read-out: % Efficacy): 100%; Emax at 20 g/ha ([1]; MYZUPE, 20 g ai/ha, 5 dat (Table 4), read-out: % Efficacy): 100%; Emax at 100 g/ha ([1]; MYZUPE, 100 g ai/ha, 5 dat (Table 4), read-out: % Efficacy): 100%; Emax at 20 g/ha ([3]; SPODFR, 20 g ai/ha, 7 dat (Table 4), read-out: % Efficacy): 100%; Emax at 100 g/ha ([3]; SPODFR, 100 g ai/ha, 7 dat (Table 4), read-out: % Efficacy): 100%
CNC(=O)c1cc(-n2ncnc2[C@H](C)NC(=O)c2cc(OC(F)(F)F)cc(S(=O)(=O)C(F)(F)F)c2)ncn1 [I-90]	100%	–	100%	100%	100%	–	–	80 to 100%	80 to 100%	80 to 100%	80 to 100%	90%	mortality at 20 mg/m2 [11]: 80 to 100%; mortality at 4 mg/m2 ([12]; surface concentration 4 mg/m^2, 30 min exposure): 80 to 100%; mortality at 20 mg/m2 ([12]; surface concentration 20 mg/m^2, 30 min exposure): 80 to 100%
C[C@H](NC(=O)c1cc(OC(F)F)cc(OC(F)(F)F)c1)c1ncnn1-c1cc(C(N)=O)ncn1 [I-141]	90%	100%	100%	100%	100%	100%	100%	–	–	–	–	100%	–
